Source: PubChem BioAssay (NCI)
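Protocol summary: plate cells (96-well), add compound at 5 concentrations, incubate 48 h, interpolate endpoints linearly. GI50 is the concentration that inhibits growth by half. TGI denotes the concentration required for complete inhibition of growth.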

Tests used:
Test in all cases: NCI anticancer screen, dose series, 48 h
HCT-116 colon = test system: HCT-116 colon
NCI/ADR-RES ovarian = test system: NCI/ADR-RES ovarian
OVCAR-5 ovarian = test system: OVCAR-5 ovarian
SF-295 CNS = test system: SF-295 CNS
U251 CNS = test system: U251 CNS
HCC-2998 colon = test system: HCC-2998 colon
NCI-H226 lung = test system: NCI-H226 lung
TK-10 renal = test system: TK-10 renal
NCI-H23 lung = test system: NCI-H23 lung
SF-268 CNS = test system: SF-268 CNS
NCI-H522 lung = test system: NCI-H522 lung
RXF 393 renal = test system: RXF 393 renal
K-562 leukemia = test system: K-562 leukemia
T-47D breast = test system: T-47D breast
SK-MEL-2 melanoma = test system: SK-MEL-2 melanoma
MDA-MB-231 breast = test system: MDA-MB-231 breast
SNB-19 CNS = test system: SNB-19 CNS
HCT-15 colon = test system: HCT-15 colon
MALME-3M melanoma = test system: MALME-3M melanoma
MOLT-4 leukemia = test system: MOLT-4 leukemia
HS 578T breast = test system: HS 578T breast
IGROV1 ovarian = test system: IGROV1 ovarian
UACC-62 melanoma = test system: UACC-62 melanoma
MDA-MB-435 = test system: MDA-MB-435
HL-60(TB) leukemia = test system: HL-60(TB) leukemia
SW-620 colon = test system: SW-620 colon
SR leukemia = test system: SR leukemia
786-0 renal = test system: 786-0 renal
NCI-H460 lung = test system: NCI-H460 lung
BT-549 breast = test system: BT-549 breast
ACHN renal = test system: ACHN renal
HOP-92 NSCLC = test system: HOP-92 NSCLC
SK-MEL-28 melanoma = test system: SK-MEL-28 melanoma
A498 renal = test system: A498 renal
KM12 colon = test system: KM12 colon
UO-31 renal = test system: UO-31 renal
OVCAR-3 ovarian = test system: OVCAR-3 ovarian
PC-3 prostate = test system: PC-3 prostate
DU-145 prostate = test system: DU-145 prostate
CCRF-CEM leukemia = test system: CCRF-CEM leukemia
A549 NSCLC = test system: A549 NSCLC
LOX IMVI melanoma = test system: LOX IMVI melanoma
SK-OV-3 ovarian = test system: SK-OV-3 ovarian
HT29 colon = test system: HT29 colon
COLO 205 colon = test system: COLO 205 colon
M14 melanoma = test system: M14 melanoma
MCF7 breast = test system: MCF7 breast
SN12C renal = test system: SN12C renal
OVCAR-8 ovarian = test system: OVCAR-8 ovarian
HOP-62 NSCLC = test system: HOP-62 NSCLC
CAKI-1 renal = test system: CAKI-1 renal
SNB-75 CNS = test system: SNB-75 CNS
SK-MEL-5 melanoma = test system: SK-MEL-5 melanoma
SF-539 CNS = test system: SF-539 CNS
UACC-257 melanoma = test system: UACC-257 melanoma

## CCC(=O)Oc1cc(/C=C/C(=O)O[C@H]2C[C@H]3CN4CCc5c([nH]c6cc(OC)ccc56)[C@@H]4C[C@@H]3[C@@H](C(=O)OC)[C@@H]2OC)ccc1OC
HCT-116 colon
  GI50: 9.11 µM
  TGI: 78.9 µM
NCI/ADR-RES ovarian
  GI50: 20.5 µM
  TGI: > 100 µM
OVCAR-5 ovarian
  GI50: 40.4 µM
  TGI: > 100 µM
SF-295 CNS
  GI50: 31 µM
  TGI: > 100 µM
U251 CNS
  GI50: 9.67 µM
  TGI: 88.1 µM
HCC-2998 colon
  GI50: 47.1 µM
  TGI: > 100 µM
NCI-H226 lung
  GI50: 11.8 µM
  TGI: > 100 µM
TK-10 renal
  GI50: 14 µM
  TGI: 45.1 µM
NCI-H23 lung
  GI50: 20.5 µM
  TGI: > 100 µM
SF-268 CNS
  GI50: 14.1 µM
  TGI: > 100 µM
NCI-H522 lung
  GI50: 16.2 µM
  TGI: 33.6 µM
RXF 393 renal
  GI50: 3.68 µM
  TGI: 17.4 µM
K-562 leukemia
  GI50: 4.06 µM
  TGI: > 100 µM
T-47D breast
  GI50: 10.8 µM
  TGI: 41.2 µM
SK-MEL-2 melanoma
  GI50: 17.6 µM
  TGI: 36.6 µM
MDA-MB-231 breast
  GI50: 5 µM
  TGI: 28.4 µM
SNB-19 CNS
  GI50: 22.4 µM
  TGI: > 100 µM
HCT-15 colon
  GI50: 5.7 µM
  TGI: 23.8 µM
MALME-3M melanoma
  GI50: 6.75 µM
  TGI: 29 µM
MOLT-4 leukemia
  GI50: 3.87 µM
  TGI: > 100 µM
HS 578T breast
  GI50: 5.3 µM
  TGI: > 100 µM
IGROV1 ovarian
  GI50: 14.1 µM
  TGI: 75.8 µM
UACC-62 melanoma
  GI50: 12.1 µM
  TGI: 29.5 µM
MDA-MB-435
  GI50: 12 µM
  TGI: 29.2 µM
HL-60(TB) leukemia
  GI50: 3.7 µM
  TGI: 26.9 µM
SW-620 colon
  GI50: 15.9 µM
  TGI: > 100 µM
SR leukemia
  GI50: 2.27 µM
  TGI: > 100 µM
786-0 renal
  GI50: 7.26 µM
  TGI: > 100 µM
NCI-H460 lung
  GI50: 28.6 µM
  TGI: > 100 µM
BT-549 breast
  GI50: 7.53 µM
  TGI: 62.4 µM
ACHN renal
  GI50: 5.34 µM
  TGI: > 100 µM
HOP-92 NSCLC
  GI50: 1.58 µM
  TGI: 11.5 µM
SK-MEL-28 melanoma
  GI50: 13.6 µM
  TGI: 35.2 µM
A498 renal
  GI50: 1.94 µM
  TGI: 9.9 µM
KM12 colon
  GI50: 18.7 µM
  TGI: > 100 µM
UO-31 renal
  GI50: 4.82 µM
  TGI: > 100 µM
OVCAR-3 ovarian
  GI50: 7.3 µM
  TGI: 67.5 µM
PC-3 prostate
  GI50: 15 µM
  TGI: > 100 µM
DU-145 prostate
  GI50: 18 µM
  TGI: > 100 µM
CCRF-CEM leukemia
  GI50: 3.75 µM
  TGI: > 100 µM
A549 NSCLC
  GI50: 21.6 µM
  TGI: > 100 µM
LOX IMVI melanoma
  GI50: 13.1 µM
  TGI: 55.1 µM
SK-OV-3 ovarian
  GI50: 59 µM
  TGI: > 100 µM
HT29 colon
  GI50: 3.37 µM
  TGI: 11.9 µM
COLO 205 colon
  GI50: 4.57 µM
  TGI: 17.7 µM
M14 melanoma
  GI50: 13.1 µM
  TGI: > 100 µM
MCF7 breast
  GI50: 5.16 µM
  TGI: 24.3 µM
SN12C renal
  GI50: 12 µM
  TGI: > 100 µM
OVCAR-8 ovarian
  GI50: 19.7 µM
  TGI: > 100 µM
HOP-62 NSCLC
  GI50: 25.2 µM
  TGI: > 100 µM
CAKI-1 renal
  GI50: 3.22 µM
  TGI: > 100 µM
SNB-75 CNS
  GI50: 3.74 µM
  TGI: 26.8 µM
SK-MEL-5 melanoma
  GI50: 13 µM
  TGI: 28.5 µM
SF-539 CNS
  GI50: 12.3 µM
  TGI: 30.9 µM
UACC-257 melanoma
  GI50: 15 µM
  TGI: > 100 µM
